# Results reported in patent US20120022151A1, “METHOD FOR PREVENTING DAMAGE TO NUCLEAR MEMBRANE OF SKIN CELL BY ADMINISTERING AMENTOFLAVONE” (Amorepacific Corporation, priority 2010, published 2012).
# Key:
# Format in all cases: cell-based
# [1] = test system: progerin (mutant lamin A); test: Western blot of progerin (mutant lamin A) induced by UVB radiation; details: 5 μM amentoflavone prior to UVB 100 mJ/cm^2; cultured 6 days; cell extract from subject (FIG. 2)
# Experimental: (§1) Cells of subjects […] were distributed in a 4-well chamber slide holding a medium prepared by adding 1% LSGS and 100 IU penicillin G to 106 medium at 100,000 cells/well. The cells were divided into a UVB-untreated negative control group, a UVB-treated group and a UVB/amentoflavone-treated group. The next day, the medium was replaced with 106 medium containing 1%
# (§2) FBS. The amentoflavone-treated group was treated with 5 μM amentoflavone prior to UVB radiation. 24 hours later, after washing the well with PBS, UVB was irradiated at 100 mJ/cm^2 to the test groups. Then, after treating again with 106 medium containing 1% FBS, the cells were cultured at 37° C. for 6 days. The treated cells were subjected to western blot and immunofluorescence staining. For western blot, the cells were lysed using RIPA buffer (Sigma) and proteins were quantitated according to the Lowry's method. 10 μg of each protein was run on 4-12% Nupage gel (Invitrogen) and then transferred to NC membrane. The membrane was blocked with 5% BSA and reacted O/N at 4° C. with the lamin A mutant antibodies, progerin (Abcam) and p-H2AX (Millipore), diluted at 1:300 and 1:200, respectively, with 5% BSA. […] Then, after washing 3 times for 10 minutes with PBST, bands were detected using ECL and LAS3000.
# [2] = test system: phosphorylated H2AX; test: Immunofluorescence staining of phosphorylated H2AX after UVB radiation; details: 5 μM amentoflavone prior to UVB 100 mJ/cm^2; cultured 6 days; cells of the subject (FIG. 3)
# Experimental: as §1
# as §2, with “LAS3000. […]” for “LAS3000.”
# [3] = test system: cells of the subject; test: Immunofluorescence staining of lamin A: nuclear damage after UVB radiation; details: 5 μM amentoflavone prior to UVB 100 mJ/cm^2; cultured 6 days; cells of the subject (FIG. 3)
# Experimental: as §1
# as §2, with “LAS3000. […]” for “LAS3000.”
smiles,measurement,setting,value
O=c1cc(-c2ccc(O)c(-c3c(O)cc(O)c4c(=O)cc(-c5ccc(O)cc5)oc34)c2)oc2cc(O)cc(O)c12 [Amentoflavone],"UVB-induced increase of progerin (mutant lamin A), western blot",[1],decreased
same,"expression of phosphorylated H2AX, immunofluorescence",[2],reduced
same,"structure of the cell nucleus (nuclear damage caused by lamin A defects), immunofluorescence",[3],retained
